Measurements taken from patent publication US20240228555A9, “ANTIMICROBIAL PEPTIDOMIMETICS” (Basilea Pharmaceutica International AG, Allschwil, priority 2020, published 2024).
Like-named read-outs stand apart in the source and are kept apart here. Where a SMILES comes first, the peptide text is derived from it.

What was measured:
[1] = test system: Escherichia coli ATCC 25922
Experimental: (§1) Lyophilized peptides were weighed on a Microbalance (Mettler MT5) and dissolved in sterile water to a final concentration of 1 mg/mL. Stock solutions were kept at +4° C., light protected.
(§2) Colonies of the microorganisms were diluted in saline (0.85%, NaCl) and adjusted using a McFarland reader (bioMérieux SA, Marcy-l'Etoile, France) to 0.5 McFarland standard. Subsequently, the bacterial suspension was diluted in Mueller-Hinton II (MHII, cation adjusted) broth to give approximately 5×10^5 colony forming units (CFU/mL).
(§3) 10^6 colony forming units (CFU)/mL. Aliquots (90 μl) of inoculate were added to 10 μl of water+P-80 (Polysorbate 80, 0.002% final concentration) containing the peptide in serial two-fold dilutions at 10 fold final concentration. The following microorganisms were used to determine antibiotic selectivity of the peptides: Escherichia coli ATCC 25922, Escherichia coli MCR-1 Af 45 and Klebsiella pneumoniae SSI3010.

[2] = test system: Escherichia coli MCR-1 Af 45; details: Mueller-Hinton broth II, no visible growth after 18-20 hours at 35° C.
Experimental: as §1, §2, §3

[3] = test system: Klebsiella pneumoniae SSI3010
Experimental: as §1, §2, §3

[4] = test system: human red blood cells (hRBC); format: cell-based; details: red cells of human, 1 h, 0.2 g/L
Experimental: as §1
The peptides were tested for their hemolytic activity against human red blood cells (hRBC). Fresh hRBC were washed three times with phosphate buffered saline (PBS) and centrifuged for 5 min at 3000×g. Compounds (200 μg/mL) were incubated with 20% hRBC (v/v) for 1 h at 37° C. and shaking at 300 rpm. A value of 0% and 100% cell lyses, respectively, was determined by incubation of hRBC in the presence of PBS and 2.5% Triton X-100 in H2O, respectively. The samples were centrifuged, the supernatants were 8-fold diluted in PBS buffer and the optical densities (OD) were measured at 540 nm. The 100% lyses value (OD540H2O) gave an OD540 of approximately 0.5-1.0.
Percent hemolysis was calculated as follows: (OD540peptide/OD540H2O)×100%.

[5] = Mueller-Hinton broth II, no visible growth after 18-20 hours at 35° C.

SMILES | Escherichia coli ATCC 25922 MIC ([1]; ATCC 25922) [µg/mL] | Escherichia coli MCR-1 Af 45 MIC [2] [µg/mL] | Klebsiella pneumoniae SSI3010 MIC ([3]; SSI3010) [µg/mL] | Hemolysis at 0.2 g/L [4] [%] | Escherichia coli ATCC 25922 MIC [1, 5] [µg/mL] | Klebsiella pneumoniae SSI3010 MIC [3, 5] [µg/mL]
CC[C@H](C)[C@H](NC(=O)[C@@H]1C[C@@H](N)CN1C(=O)[C@@H](N)C(C)C)C(=O)N[C@H](C(=O)N[C@@H](Cc1ccc(O)cc1)C(=O)N[C@@H]1C(=O)N[C@@H](CC(N)=O)C(=O)N[C@@H](CCCNC(=N)N)C(=O)N[C@@H](CCN)C(=O)N[C@@H]([C@@H](C)O)C(=O)N[C@H](CCN)C(=O)N[C@@H](CCCCN)C(=O)N[C@H](C(=O)N[C@@H](CO)C(=O)N[C@H](C(=O)N[C@@H](Cc2ccc(O)cc2)C(=O)O)[C@@H](C)O)CSSC1(C)C)[C@@H](C)O [Example 119, Val-Pro((4R)NH2)-Ile-Thr-Tyr-Pen-Asn-Arg-Dab-Thr-^DDab-Lys-Cys-Ser-Thr-Tyr] (HELM PEPTIDE1{V.[N[C@@H]1C[C@@H](C(=O)[*:2])N([*:1])C1].I.T.Y.[Pen].N.R.[Dab].T.[NCC[C@@H](N[*:1])C(=O)[*:2]].K.C.S.T.Y}$PEPTIDE1,PEPTIDE1,6:R3-13:R3$$$V2.0) | 0.25 | 0.25 | 0.25 | <1 | – | –
CC[C@H](C)[C@H](NC(=O)[C@@H]1C[C@@H](N)CN1C(=O)[C@@H](N)C(C)C)C(=O)N[C@H](C(=O)N[C@@H](Cc1ccc(O)cc1)C(=O)N[C@@H]1C(=O)N[C@@H](CC(N)=O)C(=O)N[C@@H](CCCNC(=N)N)C(=O)N[C@@H](CCN)C(=O)N[C@@H]([C@@H](C)O)C(=O)N[C@H](CCN)C(=O)N[C@@H](CCCCN)C(=O)N[C@H](C(=O)N[C@@H](CCN)C(=O)N[C@H](C(=O)N[C@@H](Cc2ccc(O)cc2)C(=O)O)[C@@H](C)O)CSSC1(C)C)[C@@H](C)O [Example 120, Val-Pro((4R)NH2)-Ile-Thr-Tyr-Pen-Asn-Arg-Dab-Thr-^DDab-Lys-Cys-Dab-Thr-Tyr] (HELM PEPTIDE1{V.[N[C@@H]1C[C@@H](C(=O)[*:2])N([*:1])C1].I.T.Y.[Pen].N.R.[Dab].T.[NCC[C@@H](N[*:1])C(=O)[*:2]].K.C.[Dab].T.Y}$PEPTIDE1,PEPTIDE1,6:R3-13:R3$$$V2.0) | 0.25 | 0.125 | 0.5 | <1 | – | –
CC[C@H](C)[C@@H]1NC(=O)[C@@H](NC(=O)[C@H](Cc2ccc(O)cc2)NC(=O)[C@@H](NC(=O)[C@@H](NC(=O)[C@@H]2C[C@@H](O)CN2C(=O)[C@@H](N)C(C)C)[C@@H](C)CC)[C@@H](C)O)C(C)(C)SSC[C@@H](C(=O)N[C@@H](CCN)C(=O)N[C@@H](CO)C(=O)N[C@@H](Cc2ccc(O)cc2)C(=O)O)NC(=O)[C@H](CCCCN)NC(=O)[C@@H](CCN)NC(=O)[C@H]([C@@H](C)O)NC(=O)[C@H](CCN)NC(=O)[C@H](CCCNC(=N)N)NC1=O [Example 99, Val-Hyp-Ile-Thr-Tyr-Pen-Ile-Arg-Dab-Thr-^DDab-Lys-Cys-Dab-Ser-Tyr] (HELM PEPTIDE1{V.[Hyp].I.T.Y.[Pen].I.R.[Dab].T.[NCC[C@@H](N[*:1])C(=O)[*:2]].K.C.[Dab].S.Y}$PEPTIDE1,PEPTIDE1,6:R3-13:R3$$$V2.0) | 0.125 | 0.125 | 0.25 | <1 | – | –
CC[C@H](C)[C@H](NC(=O)[C@@H](NC(=O)[C@@H]1CCCN1C(=O)[C@@H](N)C(C)C)[C@@H](C)CC)C(=O)N[C@@H](Cc1ccc(O)cc1)C(=O)N[C@@H]1C(=O)N[C@@H](CC(N)=O)C(=O)N[C@@H](CCCNC(=N)N)C(=O)N[C@@H](CCN)C(=O)N[C@@H]([C@@H](C)O)C(=O)N[C@H](CCN)C(=O)N[C@@H](CCCCN)C(=O)N[C@H](C(=O)N[C@@H](CCN)C(=O)N[C@@H](CCCNC(=N)N)C(=O)N[C@@H](Cc2ccc(O)cc2)C(=O)O)CSSC1(C)C [Example 7, Val-Pro-Ile-Ile-Tyr-Pen-Asn-Arg-Dab-Thr-^DDab-Lys-Cys-Dab-Arg-Tyr] (HELM PEPTIDE1{V.P.I.I.Y.[Pen].N.R.[Dab].T.[NCC[C@@H](N[*:1])C(=O)[*:2]].K.C.[Dab].R.Y}$PEPTIDE1,PEPTIDE1,6:R3-13:R3$$$V2.0) | – | – | – | 0 | 0.0625 | 0.125
CC[C@H](C)[C@H](NC(=O)[C@@H](NC(=O)[C@@H]1CCCN1C(=O)[C@@H](NC(=N)N)C(C)C)[C@@H](C)CC)C(=O)N[C@@H](Cc1ccc(O)cc1)C(=O)N[C@@H]1C(=O)N[C@@H](CC(N)=O)C(=O)N[C@@H](CCCNC(=N)N)C(=O)N[C@@H](CCN)C(=O)N[C@@H]([C@@H](C)O)C(=O)N[C@H](CCN)C(=O)N[C@@H](CCCCN)C(=O)N[C@H](C(=O)N[C@@H](CCN)C(=O)N[C@@H](CCCNC(=N)N)C(=O)N[C@@H](Cc2ccc(O)cc2)C(=O)O)CSSC1(C)C [Example 54, Gua-Val-Pro-Ile-Ile-Tyr-Pen-Asn-Arg-Dab-Thr-^DDab-Lys-Cys-Dab-Arg-Tyr] (HELM PEPTIDE1{[CC(C)[C@H](NC(=N)N)C(=O)[*:2]].P.I.I.Y.[Pen].N.R.[Dab].T.[NCC[C@@H](N[*:1])C(=O)[*:2]].K.C.[Dab].R.Y}$PEPTIDE1,PEPTIDE1,6:R3-13:R3$$$V2.0) | – | – | – | 0 | 0.125 | 0.125
CCCC[C@H](NC(=O)[C@H](CCCNC(=N)N)NC(=O)[C@H](CCN)NC(=O)[C@@H]1CSSC(C)(C)[C@H](NC(=O)[C@H](Cc2ccc(O)cc2)NC(=O)[C@@H](NC(=O)[C@@H](NC(=O)[C@@H]2C[C@@H](N)CN2C(=O)[C@@H](N)C(C)C)[C@@H](C)CC)[C@@H](C)CC)C(=O)N[C@@H](CC(N)=O)C(=O)N[C@@H](CCCNC(=N)N)C(=O)N[C@@H](CCCNC(=N)N)C(=O)N[C@@H]([C@@H](C)O)C(=O)N[C@H](CCN)C(=O)N[C@@H](CCCCN)C(=O)N1)C(=O)O [Example 2, Val-Pro((4R)NH2)-Ile-Ile-Tyr-Pen-Asn-Arg-Arg-Thr-^DDab-Lys-Cys-Dab-Arg-Nle] (HELM PEPTIDE1{V.[N[C@@H]1C[C@@H](C(=O)[*:2])N([*:1])C1].I.I.Y.[Pen].N.R.R.T.[NCC[C@@H](N[*:1])C(=O)[*:2]].K.C.[Dab].R.[Nle]}$PEPTIDE1,PEPTIDE1,6:R3-13:R3$$$V2.0) | – | – | – | 0 | 0.0625 | 0.125
CC[C@H](C)[C@H](NC(=O)[C@@H](NC(=O)[C@@H]1C[C@@H](O)CN1C(=O)[C@@H](N)C(C)C)[C@@H](C)CC)C(=O)N[C@@H](Cc1ccc(O)cc1)C(=O)N[C@@H]1C(=O)N[C@@H](CC(N)=O)C(=O)N[C@@H](CCCNC(=N)N)C(=O)N[C@@H](CCN)C(=O)N[C@@H]([C@@H](C)O)C(=O)N[C@H](CCN)C(=O)N[C@@H](CCCCN)C(=O)N[C@H](C(=O)N[C@@H](CCN)C(=O)N[C@@H](CCCNC(=N)N)C(=O)N[C@@H](Cc2ccc(O)cc2)C(=O)O)CSSC1(C)C [Example 14, Val-Hyp-Ile-Ile-Tyr-Pen-Asn-Arg-Dab-Thr-^DDab-Lys-Cys-Dab-Arg-Tyr] (HELM PEPTIDE1{V.[Hyp].I.I.Y.[Pen].N.R.[Dab].T.[NCC[C@@H](N[*:1])C(=O)[*:2]].K.C.[Dab].R.Y}$PEPTIDE1,PEPTIDE1,6:R3-13:R3$$$V2.0) | – | – | 0.25 | 0 | 0.125 | –
CC[C@H](C)[C@H](NC(=O)[C@@H](NC(=O)[C@@H]1C[C@@H](O)CN1C(=O)[C@@H](NC(=N)N)C(C)C)[C@@H](C)CC)C(=O)N[C@@H](Cc1ccc(O)cc1)C(=O)N[C@@H]1C(=O)N[C@@H](CC(N)=O)C(=O)N[C@@H](CCCNC(=N)N)C(=O)N[C@@H](CCN)C(=O)N[C@@H]([C@@H](C)O)C(=O)N[C@H](CCN)C(=O)N[C@@H](CCCCN)C(=O)N[C@H](C(=O)N[C@@H](CCN)C(=O)N[C@@H](CCCNC(=N)N)C(=O)N[C@@H](Cc2ccc(O)cc2)C(=O)O)CSSC1(C)C [Example 56, Gua-Val-Hyp-Ile-Ile-Tyr-Pen-Asn-Arg-Dab-Thr-^DDab-Lys-Cys-Dab-Arg-Tyr] (HELM PEPTIDE1{[CC(C)[C@H](NC(=N)N)C(=O)[*:2]].[Hyp].I.I.Y.[Pen].N.R.[Dab].T.[NCC[C@@H](N[*:1])C(=O)[*:2]].K.C.[Dab].R.Y}$PEPTIDE1,PEPTIDE1,6:R3-13:R3$$$V2.0) | – | – | – | 0 | 0.03125 | 0.0625
